Test results from patent EP1212309B1, “CASPASE INHIBITOR” (LG Chem Investment, Ltd., priority 1999, dated 2001).
Values joined by “and” are separate entries in the source; they are usually repeats but may differ in a detail not shown here. Identical values can stand only once. Like-named read-outs stand apart in the source and are kept apart here. One block for each compound: values may come before it.

Legend:
Jurkat T cell = assay: MTT assay of cell death induced by Anti-FAS antibody CH11; assay type: cell-based; conditions: Jurkat T cell treated with Anti-FAS antibody CH11, MTT, read-out: ED50 FAS Induced cell death
WI38 cells = assay: Protection from IFNγ and anti-Fas antibody-induced apoptosis (XTT); assay type: cell-based, human; conditions: 100% when Fas antibody was not treated; for viability ratio: WI38 cells
Procedure: WI38 cells (human embryonal lung fibroblast) were grown in a medium containing DMEM-10% FBS within 10cm diameter dishes until reaching at confluency. The cells were seeded into a 24-well plate at day 1 and incubated overnight while the volume of medium was maintained to 400µℓ. […] At day 3, each 100 µℓ of test compound was added to the cells after diluting the 10mM stock compound in DMSO to final concentrations of 50, 10, 2, and 0.4 µ M, respectively. The cells were incubated for 2 hrs in order for allowing the compound to enter into the cells and then treated with 40ng/well of anti-Fas antibody(apoptosis was induced 2 hrs after antibody was treated and the incubation was continued overnight). The control was not treated with Fas antibody. […] After coloring, 100-200µℓ of the supernatant was transferred to a 96-well plate and the absorbance at 490 nm was read with ELISA plate reader. For the blank, XTT solution was added to the well containing the medium only. Plotting was determined by comparing with the control group (100% when Fas antibody was not treated).

caspase-1 = target: T1, caspase-1 (Homo sapiens, UniProt P29466); assay: Screening on caspases inhibiting activity (recombinant enzyme, fluorogenic AMC substrate); assay type: biochemical; conditions: for Ki: Reversible Inhibitor
T1 construct: made in house
T1 sequence (P29466 120-297 limits assumed): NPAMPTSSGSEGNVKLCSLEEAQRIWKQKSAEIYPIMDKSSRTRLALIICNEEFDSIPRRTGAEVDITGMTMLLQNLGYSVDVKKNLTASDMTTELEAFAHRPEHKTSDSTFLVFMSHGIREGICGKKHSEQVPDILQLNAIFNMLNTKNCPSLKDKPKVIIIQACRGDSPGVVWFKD
T1 sequence (P29466 317-404 limits assumed): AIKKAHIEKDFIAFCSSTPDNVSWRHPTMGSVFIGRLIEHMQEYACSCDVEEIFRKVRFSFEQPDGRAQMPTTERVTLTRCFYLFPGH
Procedure: (§1) In the present experiment, recombinant caspases were purified from a transformed bacterium after human caspase genes were cloned into the expression vector pET, and then used in the experiment (Thornberry, N.A. et .al. Nature, 1992, 356, 768. Thombeny, N.A. Methods in Enzymology, 1994, 615.).
(§2) Enzymatic activity was measured by a known procedure (Walker N.P.C. et al., Cell 1994, 78, 343). Briefly, 10 ng of recombinant protein was mixed with 50 mM Tris(pH 7.0), 1mM DTT, 0.5 mM EDTA, 10% Glycerol buffer containing 1∼100 µM of enzyme substrate, Ac-YVAD-AMC or Ac-DEVD-AMC and then the changes by isolated AMC at 37°C were recorded. The inhibitory activity for caspases was calculated from the early enzyme reaction rate by measuring the changes with fluorescence excited at […] and emitted at 460 nm (Range; Ki<100nM).

caspase-3 = target: T2, caspase-3 (Homo sapiens, UniProt P42574); assay: as above; assay type: biochemical; conditions: Irreversible Inhibitors
T2 construct: made in house
T2 sequence (P42574 29-175 limits assumed): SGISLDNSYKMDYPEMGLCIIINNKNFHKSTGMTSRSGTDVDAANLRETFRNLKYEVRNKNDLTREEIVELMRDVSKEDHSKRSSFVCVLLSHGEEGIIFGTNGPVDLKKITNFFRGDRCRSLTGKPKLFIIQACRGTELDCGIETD
T2 sequence (P42574 176-277 limits assumed): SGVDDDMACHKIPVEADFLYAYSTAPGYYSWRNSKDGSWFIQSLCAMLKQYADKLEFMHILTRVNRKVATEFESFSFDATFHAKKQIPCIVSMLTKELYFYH
Procedure: as §1, §2

Compound: CC1(C(=O)N[C@@H](CC(=O)O)C(=O)COc2ccccc2)CC([C@H](CCC(=O)O)NC(=O)CCC(=O)O)=NO1 (mixture of isomers) [Compound 46, (3S)-3-{3-[(1S)-1-(succinoylamino)-3-carboxy-propyl]-5-methyl-4,5-dihydro-isoxazole-5-carbonylamino}-4-keto-5-phenoxy-pentanoic acid]
EC50 (Jurkat T cell; Homo sapiens): 1000 to 10000 nM

Compound: CC(C)[C@H](NC(=O)CCC(=O)O)C1=NOC(C)(C(=O)N[C@@H](CC(=O)O)C(=O)COc2ccccc2)C1 (mixture of isomers) [Compound 47, (3S)-3-{3-[2-methyl-(1S)-1-(succinoylamino)-propyl]-5-methyl-4,5-dihydro-isoxazole-5-carbonylamino}-4-keto-5-phenoxy-pentanoic acid]
EC50 (Jurkat T cell; Homo sapiens): 1000 to 10000 nM

Compound: CC(C)[C@H](NC(=O)CCC(=O)O)C1=NOC(C)(C(=O)N[C@@H](CC(=O)O)C(=O)COc2ccc3ccccc3c2)C1 (single isomer, unassigned) [Compound 81]
EC50 (Jurkat T cell; Homo sapiens): 1000 to 10000 nM

Compound: CC(=O)N[C@@H](CC(=O)O)C(=O)N[C@@H](CCC(=O)O)C(=O)N[C@H](C(=O)N[C@H](C=O)CC(=O)O)C(C)C [Ac-DEVD-CHO, reference compound]
viability ratio (WI38 cells; Conc. 0.4 µM): 12.16%
viability ratio (WI38 cells; Conc. 2 µM): 14.75%
viability ratio (WI38 cells; Conc. 10 µM): 19.16%
viability ratio (WI38 cells; Conc. 50 µM, 50 µM): 35.1% and 35.14%

Ki (caspase-1): 0.0721 nM
Compound: CC(C)[C@H](NC(=O)c1ccc2ccccc2c1)C1=NOC(COc2ccccc2)(C(=O)N[C@@H](CC(=O)O)C(=O)COc2ccc3ccccc3c2)C1 (stereo partly drawn) [Compound 25mp, (3S)-3-{3-[(1S)-1-(naphthalene-2-carbonylamino)-2-methyl-propyl]-5-phenoxymethyl-4,5-dihydro-isoxazole-5-carbonylamino}-4-keto-5-(2-naphthyloxy)-pent anoic acid]
EC50 (Jurkat T cell; Homo sapiens): 1000 to 10000 nM

Compound: CC(C)[C@H](NC(=O)c1ccc2ccccc2c1)C1=NOC(Cc2ccccc2)(C(=O)N[C@@H](CC(=O)O)C(=O)COC(=O)c2c(Cl)cccc2Cl)C1 (stereo partly drawn) [Compound 28, (3S)-3-{3-{(1S)-1-(naphthalene-2-carbonylamino)-2-methyl-propyl]-5-phenylmethyl-4,5-dihydro-isoxazole-5-carbonylamino}-4-keto-5-(2,6-dichlorobenzoyloxy)-pentanoic acid]
viability at 0.4 µM (WI38 cells; Homo sapiens, WI-38, WI38 cells, Conc. 0.4 µM, read-out: viability ratio): 14.7%
viability at 2 µM (WI38 cells; Homo sapiens, WI-38, WI38 cells, Conc. 2 µM, read-out: viability ratio): 17.3%
viability at 10 µM (WI38 cells; Homo sapiens, WI-38, WI38 cells, Conc. 10 µM, read-out: viability ratio): 82.4%
viability at 50 µM (WI38 cells; Homo sapiens, WI-38, WI38 cells, Conc. 50 µM, read-out: viability ratio): 90%
viability ratio (WI38 cells; Conc. 50 µM, listed as Comp 28, 50 µM): 90.39%

Compound: CC(C)[C@H](NC(=O)c1ccc2ccccc2c1)C1=NOC(C(=O)N[C@@H](CC(=O)O)C(=O)COc2ccc3ccccc3c2)C1 (stereo partly drawn) [Compound 29, (3S)-3-{3-[(1S)-1-(naphthalene-2-carbonylamino)-2-methyl-propyl]-4,5-dihydro-isoxazole-5-carbonylamino}-4-keto-5-(2-naphthyloxy)-pentanoic acid]
EC50 (Jurkat T cell; Homo sapiens): 1000 to 10000 nM

Compound: CC(C)[C@H](NC(=O)c1ccc2ccccc2c1)C1=NOC(C(=O)N[C@@H](CC(=O)O)C(=O)COc2ccccc2)C1 (stereo partly drawn) [Compound 30, (3S)-3-{3-[2-methyl-(1S)-1-(2-naphthalenecarbonylamino)-propyl]-4,5-dihydro-isoxazole-5-carbonylamino}-4-keto-5-phenoxy-pentanoic acid]
EC50 (Jurkat T cell; Homo sapiens): 1000 to 10000 nM

Ki (caspase-1): 4 nM
Compound: CC(C)[C@H](NC(=O)c1ccc2ccccc2n1)C1=NOC(Cc2ccccc2)(C(=O)N[C@@H](CC(=O)O)C(=O)COc2ccccc2)C1 (stereo partly drawn) [Compound 43mp, (3S)-3-{3-[2-methyl-(1S)-1-(quinoline-2-yl-carbonylamino)-propyl]-5-phenylmethyl-4,5-dihydro-isoxazole-5-carbonylamino}-4-keto-5-phenoxy-pentanoic acid]
EC50 (Jurkat T cell; Homo sapiens): 1000 to 10000 nM

Compound: CC(C)[C@H](NC(=O)c1cccc2ccccc12)C1=NOC(Cc2ccccc2)(C(=O)N[C@@H](CC(=O)O)C(=O)CN2CCCCC2)C1 (stereo partly drawn) [Compound 48, (3S)-3-{3-[2-methyl-(1S)-1-(1-naphtalenylcarbonylamino)-propyl]-5-phenylmethyl-4,5-dihydro-isoxazole-5-carbonylamino}-4-keto-5-(1-piperidinyl)-pentanoic acid]
EC50 (Jurkat T cell; Homo sapiens): 1000 to 10000 nM

Compound: CC(C)[C@H](NC(=O)c1cc2ccccc2[nH]1)C1=NOC(Cc2ccccc2)(C(=O)N[C@@H](CC(=O)O)C(=O)COC(=O)c2c(Cl)cccc2Cl)C1 (stereo partly drawn) [Compound 64, (3S)-3-{3-[2-methyl-(1S)-1-(indole-2-carbonylamino)-propyl]-5-phenylmethyl - 4,5-dihydro-isoxazole-5-carbonylamino}-4-keto-5-(2,6-dichlorobenzoyloxy)-pe ntanoic acid]
EC50 (Jurkat T cell; Homo sapiens): 1000 to 10000 nM

Compound: CC(C)[C@H](NC(=O)c1c[nH]c2ccccc12)C1=NOC(Cc2ccccc2)(C(=O)N[C@@H](CC(=O)O)C(=O)COC(=O)c2c(Cl)cccc2Cl)C1 (stereo partly drawn) [Compound 66, (3S)-3-{3-[2-methyl-(1S)-1-(indole-3-carbonylamino)-propyl]-5-phenylmethyl - 4,5-dihydro-isoxazole-5-carbonylamino}-4-keto-5-(2,6-dichlorobenzoyloxy)-pe ntanoic acid]
EC50 (Jurkat T cell; Homo sapiens): 1000 to 10000 nM

Compound: CC(C)[C@H](NC(=O)c1cccc2ccccc12)C1=NOC(C)(C(=O)N[C@@H](CC(=O)O)C(=O)COC(=O)c2c(Cl)cccc2Cl)C1 (stereo partly drawn) [Compound 68, (3S)-3-{3-[2-methyl-(1S)-1-(naphthalene-1-carbonylamino)-propyl]-5-methyl-4,5-dihydro-isoxazole-5-carbonylamino}-4-keto-5-(2,6-dichlorobenzoyloxy)-pen tanoic acid]
EC50 (Jurkat T cell; Homo sapiens): 1000 to 10000 nM

Kobs/[I] for caspase-1 (caspase-1; Irreversible Inhibitors): 14500 M⁻¹ s⁻¹
Kobs/[I] for caspase-3 (caspase-3): 40900 M⁻¹ s⁻¹
Compound: CC(C)[C@H](NC(=O)CCC(=O)O)C1=NOC(C)(C(=O)N[C@@H](CC(=O)O)C(=O)COC(=O)c2c(Cl)cccc2Cl)C1 (stereo partly drawn) [Compound 74, (3S)-3-{3-[2-methyl-(1S)-1-(succinoylamino)-propyl]-5-methyl-4,5-dihydro-isoxazole-5-carbonylamino}-4-keto-5-(2,6-dichlorobenzoyloxy)-pentanoic acid]

Ki (caspase-1): 28900 nM
Compound: CC(C)[C@H](NC(=O)CCC(=O)O)C1=NOC(C)(C(=O)N[C@@H](CC(=O)O)C(=O)CN2CCCCC2)C1 (stereo partly drawn) [Compound 77, (3S)-3-{3-[2-methyl-(1S)-1-(succinoylamino)-propyl]-5-methyl-4,5-dihydro-isoxazole-5-carbonylamino}-4-keto-5-(N-piperidine)-pentanoic acid]
EC50 (Jurkat T cell; Homo sapiens): 1000 to 10000 nM

Kobs/[I] for caspase-3 (caspase-3): 80100 M⁻¹ s⁻¹
Compound: CCCCCC1(C(=O)N[C@@H](CC(=O)O)C(=O)COC(=O)c2c(Cl)cccc2Cl)CC([C@@H](NC(=O)CCC(=O)O)C(C)C)=NO1 (stereo partly drawn) [Compound 90, (3S)-3-{3-[2-methyl-(1S)-1-(succinoylamino)-propyl]-5-n-pentyl-4,5-dihydro-isoxazole-5-carbonylamino}-4-keto-5-(2,6-dichlorobenzoyloxy)-pentanoic acid]

Compound: CC(C)[C@H](NC(=O)[C@H](CCC(=O)O)NC(=O)[C@H](CC(=O)O)NC(=O)OCc1ccccc1)C(=O)N[C@@H](CC(=O)O)C(=O)CCl [z-DEVD-cmk, reference compound]
viability ratio (WI38 cells; Conc. 0.4 µM): 15.13%
viability ratio (WI38 cells; Conc. 2 µM): 16.27%
viability ratio (WI38 cells; Conc. 10 µM): 27.38%
viability ratio (WI38 cells; Conc. 50 µM, 50 µM): 47.3% and 47.32%

Compound: (3S)-3-{3-[(1S)-1-(quinoline-2-yl-carbonylamino)-2-methyl-propyl]-5-phenox ymethyl-4,5-dihydro-isoxazole-5-carbonylamino}-4-keto-pentanoic acid [Compound 22mp]
EC50 (Jurkat T cell): 1000 to 10000 nM
Ki (caspase-1): 0.125 nM
